Source: patent publication US20260250289A1, “BICYCLIC HETEROCYCLES AND THEIR USE AS WRN INHIBITORS” (Novartis AG, priority 2022, published 2026)

Columns and labels:
[1] = molecular target: T1, WRN helicase (aa N517-P1238) (Homo sapiens, UniProt Q14191); experiment: WRN ATPase assay (DNA dependent ATP hydrolysis, ADP-Glo); format: biochemical; details: 3 hours pre-incubation, 300 micromolar ATP, FLAP26 DNA; geometric mean of at least 2
T1 construct: The core helicase motif of the WRN protein (aa N517-P1238) was produced for this assay; His (N); ZZ (N); 3C protease cleavage site (N); made in house; host or cells: Sf21 insect cells (baculovirus; virus and BIICs made in SF9)
How it was run: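 DNA-dependent ATP hydrolysis detected as ADP by ADP-Glo luminescence, using 300 μM ATP, 0.2 nM FLAP26 substrate and 10 nM WRN aa N517-P1238 (Tris pH 7.5 buffer, 2 mM MgCl2, 50 mM NaCl). IC50s fitted from normalized duplicate half-log dilutions; reported as geometric means of at least 2 replicates.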

SW48 cells = experiment: Proliferation assay SW48 (CellTiterGlo); format: cell-based; details: Homo sapiens, SW48, 96 h, SW48 colon carcinoma cells, 96 hours, CellTiterGlo; geometric mean of at least 2; read-out: Proliferation Assay SW48 GI50
How it was run: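 Read-out is CellTiterGlo luminescence after 96 hours of compound exposure, with % growth calculated against day-0 and vehicle-treated ATP levels. SW48 seeded at 2,000 cells/well, dosed next day with eight 3-fold serial dilutions, 0.1% DMSO. GI50 reported as geometric mean, at least 2 replicates.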

DLD1-WRN-KO cells = experiment: Proliferation assay DLD1-WRN-KO (CellTiterGlo, off-target effects); format: cell-based; details: 96 hours, geometric mean of at least 2
How it was run: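 DLD1 cells with CRISPR knockout of WRN were exposed overnight-seeded to eight 3-fold compound dilutions (0.1% DMSO) for 96 h at 37 °C. Viability was read as ATP by CellTiterGlo luminescence against a day-0 plate, giving GI50 and residual viability at top concentration.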

T1 sequence (Q14191 517-1238): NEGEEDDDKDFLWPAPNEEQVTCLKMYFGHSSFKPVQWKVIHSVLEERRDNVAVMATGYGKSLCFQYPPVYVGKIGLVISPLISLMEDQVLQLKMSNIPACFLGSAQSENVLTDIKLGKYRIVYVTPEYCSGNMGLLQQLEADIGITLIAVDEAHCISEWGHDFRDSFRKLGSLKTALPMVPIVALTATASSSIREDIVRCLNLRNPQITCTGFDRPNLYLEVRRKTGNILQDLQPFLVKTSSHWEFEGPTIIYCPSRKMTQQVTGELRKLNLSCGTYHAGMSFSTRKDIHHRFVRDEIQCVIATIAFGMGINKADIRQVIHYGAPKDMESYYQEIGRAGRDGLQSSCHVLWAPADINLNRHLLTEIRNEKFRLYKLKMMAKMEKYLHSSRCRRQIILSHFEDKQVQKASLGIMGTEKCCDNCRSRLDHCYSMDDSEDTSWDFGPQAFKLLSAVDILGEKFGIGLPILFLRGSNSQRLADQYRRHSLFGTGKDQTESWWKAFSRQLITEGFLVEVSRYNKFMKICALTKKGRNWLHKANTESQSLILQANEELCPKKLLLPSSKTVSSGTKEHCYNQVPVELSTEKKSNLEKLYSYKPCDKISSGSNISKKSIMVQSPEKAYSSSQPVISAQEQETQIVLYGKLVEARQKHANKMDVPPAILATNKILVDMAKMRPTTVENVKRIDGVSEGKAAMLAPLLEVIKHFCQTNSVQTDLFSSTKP

Compound | IC50 [1] [nM] | GI50 (SW48 cells) [nM] | GI50 (DLD1-WRN-KO cells) [nM]
CC(=O)N1CCN(c2c(C)n(CC(=O)Nc3cc(Cl)c(C(F)(F)F)nc3C)c3nc(C4=CCOCC4)nn3c2=O)CC1 [Example 87, 2-(6-(4-acetylpiperazin-1-yl)-2-(3,6-dihydro-2H-pyran-4-yl)-5-methyl-7-oxo-[1,2,4]triazolo[1,5-a]pyrimidin-4(7H)-yl)-N-(5-chloro-2-methyl-6-(trifluoromethyl)pyridin-3-yl)acetamide] | 500 | 4000 | > 10000
CCc1c(N2CCN(C(=O)c3c(O)ccc4ncccc34)CC2)c(=O)n2nc(C3=CCOCC3)nc2n1CC(=O)Nc1ccc(C(F)(F)F)cc1C [Example 18, 2-(2-(3,6-dihydro-2H-pyran-4-yl)-5-ethyl-6-(4-(6-hydroxyquinoline-5-carbonyl)piperazin-1-yl)-7-oxo-[1,2,4]triazolo[1,5-a]pyrimidin-4(7H)-yl)-N-(2-methyl-4-(trifluoromethyl)phenyl)acetamide] | 60 | 200 | > 10000
Cc1c(N2CCN(C(=O)c3ccc(F)c(F)c3O)CC2)c(=O)n2nc(C3=CCOCC3)nc2n1CC(=O)Nc1ccc(C(F)(F)F)cc1 [Example 16, 2-(6-(4-(3,4-difluoro-2-hydroxybenzoyl)piperazin-1-yl)-2-(3,6-dihydro-2H-pyran-4-yl)-5-methyl-7-oxo-[1,2,4]triazolo[1,5-a]pyrimidin-4(7H)-yl)-N-(4-(trifluoromethyl)phenyl)acetamide] | 50 | 500 | > 10000
CCc1c(N2CCN(C(=O)c3ccnc(C)c3O)CC2)c(=O)n2nc(C3=CCOCC3)nc2n1CC(=O)Nc1ccc(C(F)(F)F)cc1Cl [Example 49, N-(2-chloro-4-(trifluoromethyl)phenyl)-2-(2-(3,6-dihydro-2H-pyran-4-yl)-5-ethyl-6-(4-(3-hydroxy-2-methylisonicotinoyl)piperazin-1-yl)-7-oxo-[1,2,4]triazolo[1,5-a]pyrimidin-4(7H)-yl)acetamide] | 200 | 500 | > 10000
CCc1c(N2CCN(C(C)=O)CC2)c(=O)n2nc(C3=CCOCC3)nc2n1CC(=O)Nc1ccc(C(F)(F)F)cc1C [Example 58, 2-(6-(4-acetylpiperazin-1-yl)-2-(3,6-dihydro-2H-pyran-4-yl)-5-ethyl-7-oxo-[1,2,4]triazolo[1,5-a]pyrimidin-4(7H)-yl)-N-(2-methyl-4-(trifluoromethyl)phenyl)acetamide] | 100 | 2000 | > 10000
CC(=O)N1CCN(c2c(C)n(CC(=O)Nc3cc(Cl)c(C(F)(F)F)cc3C)c3nc(C4=CCOCC4)nn3c2=O)CC1 [Example 108, 2-(6-(4-acetylpiperazin-1-yl)-2-(3,6-dihydro-2H-pyran-4-yl)-5-methyl-7-oxo-[1,2,4]triazolo[1,5-a]pyrimidin-4(7H)-yl)-N-(5-chloro-2-methyl-4-(trifluoromethyl)phenyl)acetamide] | 200 | 900 | > 10000
Cc1c(C2CCN(C(=O)c3c(F)ccc(F)c3O)CC2)c(=O)n2nc(C3=CCCCO3)nc2n1CC(=O)Nc1ccc(C(F)(F)F)cc1 [Example 137, 2-(6-(1-(3,6-difluoro-2-hydroxybenzoyl)piperidin-4-yl)-2-(3,4-dihydro-2H-pyran-6-yl)-5-methyl-7-oxo-[1,2,4]triazolo[1,5-a]pyrimidin-4(7H)-yl)-N-(4-(trifluoromethyl)phenyl) acetamide] | 50 | 300 | > 10000
Cc1c(N2CCN(C(=O)c3c(O)cccc3Cl)CC2)c(=O)n2nc(C3=CCOCC3)nc2n1CC(=O)Nc1ccc(C(F)(F)F)cc1 [Example 149, 2-(6-(4-(2-chloro-6-hydroxybenzoyl)piperazin-1-yl)-2-(3,6-dihydro-2H-pyran-4-yl)-5-methyl-7-oxo-[1,2,4]triazolo[1,5-a]pyrimidin-4(7H)-yl)-N-(4-(trifluoromethyl)phenyl)acetamide] | 90 | 2000 | > 10000
CCc1c(N2CCN(C(=O)c3c(O)ccc4nccn34)CC2)c(=O)n2nc(C3=CCOCC3)nc2n1CC(=O)Nc1ccc(C(F)(F)F)cc1Cl [Example 46, N-(2-chloro-4-(trifluoromethyl)phenyl)-2-(2-(3,6-dihydro-2H-pyran-4-yl)-5-ethyl-6-(4-(6-hydroxyimidazo[1,2-a]pyridine-5-carbonyl)piperazin-1-yl)-7-oxo-[1,2,4]triazolo[1,5-a]pyrimidin-4(7H)-yl)acetamide] | 90 | 200 | > 10000
COCC1=CCN(c2nc3n(CC(=O)Nc4ccc(C(F)(F)F)cc4)c(C)c(N4CCN(C(C)=O)CC4)c(=O)n3n2)CC1 [Example 120, 2-(6-(4-acetylpiperazin-1-yl)-2-(4-(methoxymethyl)-3,6-dihydropyridin-1(2H)-yl)-5-methyl-7-oxo-[1,2,4]triazolo[1,5-a]pyrimidin-4(7H)-yl)-N-(4-(trifluoromethyl)phenyl)acetamide] | 600 | 6000 | > 10000
CCc1c(N2CCN(C(=O)c3ccnc(C)c3O)CC2)c(=O)n2nc(C3=CCCCO3)nc2n1CC(=O)Nc1ccc(C(F)(F)F)cc1Cl [Example 23, N-(2-chloro-4-(trifluoromethyl)phenyl)-2-(2-(3,4-dihydro-2H-pyran-6-yl)-5-ethyl-6-(4-(3-hydroxy-2-methylisonicotinoyl)piperazin-1-yl)-7-oxo-[1,2,4]triazolo[1,5-a]pyrimidin-4(7H)-yl)acetamide] | 200 | 300 | > 10000
CCc1c(N2CCN(C(=O)c3nn(C)c(=O)[nH]3)CC2)c(=O)n2nc(C3=CCCC3)nc2n1CC(=O)Nc1ccc(C(F)(F)F)cc1 [Example 12, 2-(2-(cyclopent-1-en-1-yl)-5-ethyl-6-(4-(1-methyl-5-oxo-4,5-dihydro-1H-1,2,4-triazole-3-carbonyl)piperazin-1-yl)-7-oxo-[1,2,4]triazolo[1,5-a]pyrimidin-4(7H)-yl)-N-(4-(trifluoromethyl)phenyl)acetamide] | 10 | 800 | > 10000
CC(=O)N1CCN(c2c(C)n(CC(=O)Nc3cc(Cl)c(C)cc3Cl)c3nc(C4=CCOCC4)nn3c2=O)CC1 [Example 100, 2-(6-(4-acetylpiperazin-1-yl)-2-(3,6-dihydro-2H-pyran-4-yl)-5-methyl-7-oxo-[1,2,4]triazolo[1,5-a]pyrimidin-4(7H)-yl)-N-(2,5-dichloro-4-methylphenyl)acetamide] | 2000 | 4000 | > 10000
CCc1c(N2CCN(C(=O)c3ncc4c(c3O)OCC4)CC2)c(=O)n2nc(C3=CCOCC3)nc2n1CC(=O)Nc1ccc(C(F)(F)F)cc1C [Example 37, 2-(2-(3,6-dihydro-2H-pyran-4-yl)-5-ethyl-6-(4-(7-hydroxy-2,3-dihydrofuro[3,2-c]pyridine-6-carbonyl)piperazin-1-yl)-7-oxo-[1,2,4]triazolo[1,5-a]pyrimidin-4(7H)-yl)-N-(2-methyl-4-(trifluoromethyl)phenyl)acetamide] | 90 | 90 | > 10000
CC(=O)N1CCN(c2c(C)n(CC(=O)Nc3ccc(Cl)cc3)c3nc(N4CCN(C(=O)OC(C)(C)C)CC4)nn3c2=O)CC1 [Example 158, tert-butyl 4-(6-(4-acetylpiperazin-1-yl)-4-(2-((4-chlorophenyl)amino)-2-oxoethyl)-5-methyl-7-oxo-4,7-dihydro-[1,2,4]triazolo[1,5-a]pyrimidin-2-yl)piperazine-1-carboxylate] | 300 | 3000 | 1000
CC(=O)N1CCN(c2c(C)n(CC(=O)Nc3cc(C(F)(F)F)c(Cl)cc3C)c3nc(C4=CCOCC4)nn3c2=O)CC1 [Example 80, 2-(6-(4-acetylpiperazin-1-yl)-2-(3,6-dihydro-2H-pyran-4-yl)-5-methyl-7-oxo-[1,2,4]triazolo[1,5-a]pyrimidin-4(7H)-yl)-N-(4-chloro-2-methyl-5-(trifluoromethyl)phenyl)acetamide] | 300 | 800 | > 10000
CCc1c(N2CCN(C(C)=O)CC2)c(=O)n2nc(C3=CCOCC3)nc2n1CC(=O)Nc1ccc(C(F)(F)F)cc1 [Example 54, 2-(6-(4-acetylpiperazin-1-yl)-2-(3,6-dihydro-2H-pyran-4-yl)-5-ethyl-7-oxo-[1,2,4]triazolo[1,5-a]pyrimidin-4(7H)-yl)-N-(4-(trifluoromethyl)phenyl)acetamide] | 100 | 1000 | > 10000
COC(=O)N1CC=C(c2nc3n(CC(=O)Nc4ccc(Cl)c(C(F)(F)F)c4)c(C)c(N4CCN(C(C)=O)CC4)c(=O)n3n2)CC1 [Example 77, methyl 4-(6-(4-acetylpiperazin-1-yl)-4-(2-((4-chloro-3-(trifluoromethyl)phenyl)amino)-2-oxoethyl)-5-methyl-7-oxo-4,7-dihydro-[1,2,4]triazolo[1,5-a]pyrimidin-2-yl)-5,6-dihydropyridine-1(2H)-carboxylate] | 200 | 4000 | > 10000
